Laboratory results reported in patent publication US6720346B2, “Thiazole benzamide derivatives and pharmaceutical compositions for inhibiting cell proliferation” (Agouron Pharmaceuticals, Inc., priority 2001, dated 2004).
Counter-ions that a name gives are not always drawn.

Key:
[1] = biological target: T1, human CDK1 (cdc2)/cyclin B (Homo sapiens, UniProt P06493); assay: Inhibition of CDK1 (cdc2)/cyclin B histone H1 kinase activity; assay type: biochemical; conditions: histone H1 substrate
T1 construct: purchased New England Biolabs (Beverly, Mass.)
Description: Cyclin-dependent kinase activity was measured by quantifying the enzyme-catalyzed, time-dependent incorporation of radioactive phosphate from [^32P]ATP or [^33P]ATP into a protein substrate. Unless noted otherwise, assays were performed in 96-well plates in a total volume of 50 μL, in the presence of 10 mM HEPES (N-[2-hydroxyethyl]piperazine-N′-[2-ethanesulfonic acid]) (pH 7.4), 10 mM MgCl2, 25 μM adenosine triphosphate (ATP), 1 mg/mL ovalbumin, 5 μg/mL leupeptin, 1 mM dithiothreitol, 10 mM β-glycerophosphate, 0.1 mM sodium vanadate, 1 mM sodium fluoride, 2.5 mM ethylene glycol-bis(β-aminoethyl ether)-N,N,N′N′-tetraacetic acid (EGTA), 2% (v/v) dimethylsulfoxide, and 0.03-0.4 μCi [^32/33P]ATP per reaction. Reactions were initiated with enzyme, incubated at 30° C., and terminated after 20 minutes by the addition of ethylenediaminetetraacetic acid (EDTA) to 250 mM. The phosphorylated substrate was then captured on a nitrocellulose or phosphocellulose membrane using a 96-well filtration manifold, and unincorporated radioactivity was removed by repeated washing with 0.85% phosphoric acid. Radioactivity was quantified by exposing the dried membranes to a phosphorimager.
Compounds from combinatorial libraries were screened from 96-well plates for % inhibition of CDK activity at 30 nM theoretical compound concentration. Inhibition was measured relative to control wells that contained all reaction components including 2% (v/v) DMSO but no compound, after subtraction of background radioactivity measured in the absence of enzyme. Apparent Ki values of discrete compounds were measured by assaying enzyme activity in the presence of different inhibitor compound concentrations and subtracting the background radioactivity measured in the absence of enzyme. The kinetic parameters (kcat, Km for ATP) were measured for each enzyme under the usual assay conditions by determining the dependence of initial rates on ATP concentration. Inhibition data were fit to an equation for competitive inhibition using Kaleidagraph (Synergy Software), or were fit to an equation for competitive tight-binding inhibition using the software KineTic (BioKin, Ltd.).
The complex of human CDK1 (cdc2) and cyclin B was purchased from New England Biolabs (Beverly, Mass.). Alternatively, a CDK1/glutathione-S-transferase-cyclin B1 complex was purified using glutathione affinity chromatography from insect cells that had been co-infected with the corresponding baculovirus expression vectors. The assay was executed as described above at 30° C. using 2.5 units of cdc2/cyclin B, 10 μg Histone H1 protein, and 0.1-0.3 μCi [^32/33P]ATP per assay. Phosphorylated histone substrate was captured by microfiltration on a phosphocellulose P81 membrane and quantified using a phosphorimager as described above. Ki values were measured using the described curve-fitting programs.

human CDK4/cyclin D3 = biological target: T2, human CDK4/cyclin D3 (Homo sapiens, UniProt P11802); assay: Inhibition of CDK4/cyclin D retinoblastoma kinase activity (Ki; % inhibition); assay type: biochemical; conditions: apparent Ki, CDK4/cyclin D3, Rb substrate
T2 construct: made in house; host or cells: insect cells co-infected with baculovirus vectors
Method in brief: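 Insect-cell-expressed CDK4 with truncated cyclin D3 (1-264), 5 nM, phosphorylating His-tagged Rb fragment (386-928) with 25 μM [32/33P]ATP at pH 7.4, 30 °C, 20 min (60 min for tight binders). Filter capture, phosphorimager read; % inhibition at 30 nM compound, Ki from competitive or tight-binding fits.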

T1 sequence (P06493 whole entry): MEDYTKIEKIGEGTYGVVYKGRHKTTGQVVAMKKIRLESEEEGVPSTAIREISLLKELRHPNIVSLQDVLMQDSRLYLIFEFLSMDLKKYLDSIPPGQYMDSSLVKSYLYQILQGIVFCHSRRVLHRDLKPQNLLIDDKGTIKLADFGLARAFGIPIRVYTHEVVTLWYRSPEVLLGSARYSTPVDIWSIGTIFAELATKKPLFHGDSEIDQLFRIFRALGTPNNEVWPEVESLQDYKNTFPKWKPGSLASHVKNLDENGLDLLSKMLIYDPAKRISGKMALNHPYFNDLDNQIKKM
T1 sequence (P14635 whole entry partner): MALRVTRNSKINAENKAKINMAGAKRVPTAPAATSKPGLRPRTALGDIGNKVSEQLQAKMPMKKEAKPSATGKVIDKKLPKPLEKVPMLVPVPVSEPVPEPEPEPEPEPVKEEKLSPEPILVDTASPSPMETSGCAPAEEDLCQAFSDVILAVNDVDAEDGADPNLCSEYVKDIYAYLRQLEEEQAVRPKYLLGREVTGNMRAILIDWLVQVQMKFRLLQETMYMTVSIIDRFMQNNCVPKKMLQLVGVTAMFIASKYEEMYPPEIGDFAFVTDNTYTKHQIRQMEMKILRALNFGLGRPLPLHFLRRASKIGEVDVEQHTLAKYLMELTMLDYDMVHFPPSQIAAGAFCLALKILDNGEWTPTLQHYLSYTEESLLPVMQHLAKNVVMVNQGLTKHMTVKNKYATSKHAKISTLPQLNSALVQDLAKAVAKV
T2 sequence (P11802 whole entry): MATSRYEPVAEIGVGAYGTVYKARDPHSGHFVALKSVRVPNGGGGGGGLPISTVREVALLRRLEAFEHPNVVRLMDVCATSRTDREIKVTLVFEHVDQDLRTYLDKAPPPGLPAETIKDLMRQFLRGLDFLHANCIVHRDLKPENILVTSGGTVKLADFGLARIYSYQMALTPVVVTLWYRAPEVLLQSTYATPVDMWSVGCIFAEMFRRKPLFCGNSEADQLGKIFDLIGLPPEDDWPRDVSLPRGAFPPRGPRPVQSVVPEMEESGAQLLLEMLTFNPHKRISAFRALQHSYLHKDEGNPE
T2 sequence (P30281 1-264 partner limits assumed): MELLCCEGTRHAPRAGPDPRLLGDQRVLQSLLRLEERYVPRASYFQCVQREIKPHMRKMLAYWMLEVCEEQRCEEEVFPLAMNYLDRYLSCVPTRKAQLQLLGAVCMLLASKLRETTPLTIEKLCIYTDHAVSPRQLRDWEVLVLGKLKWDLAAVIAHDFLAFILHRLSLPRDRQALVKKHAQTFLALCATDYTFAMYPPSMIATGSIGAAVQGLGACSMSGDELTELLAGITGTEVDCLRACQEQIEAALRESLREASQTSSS

| Structure (SMILES) | Ki [1] | Ki (human CDK4/cyclin D3) |
| --- | --- | --- |
| Nc1nc(Nc2ccc(C(=O)NCCc3ccc(O)cc3)cc2)sc1C(=O)c1c(F)cccc1F [Example A14, 4-[4-Amino-5-(2,6-difluoro-benzoyl)-thiazol-2-ylamino]-N-[2-(4-hydroxy-phenyl)-ethyl]-benzamide] | 42 nM | 14 nM |
| CC(CN(C)C)NC(=O)c1ccc(Nc2nc(N)c(C(=O)c3c(F)cccc3F)s2)cc1 (stereo not shown) [Example A20, 4-[4-Amino-5-(2,6-difluoro-benzoyl)-thiazol-2-ylamino]-N-(2-dimethylamino-1RS-methyl-ethyl)-benzamide Hydrochloride Salt] | 150 nM | 32 nM |
| Nc1nc(Nc2ccc(C(=O)NCCN3CCCCC3)cc2)sc1C(=O)c1c(F)cccc1F [Example A15, 4-[4-Amino-5-(2,6-difluoro-benzoyl)-thiazol-2-ylamino]-N-(2-piperidin-1-yl-ethyl)-benzamide] | 68 nM | 7 nM |

More lines, now with the values ahead:

| Ki [1] | Ki (human CDK4/cyclin D3) | Structure (SMILES) |
| --- | --- | --- |
| 120 nM | 105 nM | Nc1nc(Nc2ccc(C(=O)Nc3ccc(N4CCOCC4)cc3)cc2)sc1C(=O)c1c(F)cccc1F [Example A21] |
| 82 nM | 7 nM | CN1CCC[C@H]1CNC(=O)c1ccc(Nc2nc(N)c(C(=O)c3c(F)cccc3F)s2)cc1 [Example A31, 4-[4-Amino-5-(2,6-difluoro-benzoyl)-thiazol-2-ylamino]-N-(1-methyl-pyrrolidin-2S-yl-methyl)-benzamide Dihydrochloride] |
